{"source": "paper PMC6874530", "about": "“Structural analysis identifies an escape route from the adverse lipogenic effects of liver X receptor ligands” (Communications Biology, 2019)", "key": {"LXRβ LBD [1]": {"molecular_target": "T1, LXRβ LBD (Homo sapiens, UniProt P55055)", "T1 sequence (P55055 215-460 limits assumed)": "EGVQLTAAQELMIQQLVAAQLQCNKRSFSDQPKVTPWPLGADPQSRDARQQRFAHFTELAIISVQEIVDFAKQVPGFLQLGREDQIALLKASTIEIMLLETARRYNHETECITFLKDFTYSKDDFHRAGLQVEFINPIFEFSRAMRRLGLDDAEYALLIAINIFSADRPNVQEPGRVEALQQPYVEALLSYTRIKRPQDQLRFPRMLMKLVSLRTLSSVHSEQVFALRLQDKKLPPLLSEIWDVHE", "experiment": "biochemical", "conditions": "Receptor-binding affinity pKi LXRβ, value (SD, n independent experiments)", "from_the_text": "(§5) The compounds were run in triplicate (binding assay) or in quadruplicate (transactivation assay). Standard deviations are indicated for individual experiments run more than once."}, "LXRβ/SRC1": {"molecular_target": "T2, LXRβ/SRC1 (Homo sapiens, UniProt P55055)", "T2 construct": "human his-tagged LXRβ LBD (216-461); His tag; made in house; host or cells: Escherichia coli BL21(DE3)", "T2 sequence (P55055 215-460 limits assumed)": "T1 sequence (P55055 215-460 limits assumed)", "T2 sequence (Q15788 with tags, fused parts or gaps partner limits assumed)": "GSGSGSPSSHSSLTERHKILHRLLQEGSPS", "experiment": "SPR cofactor recruitment, LXRβ LBD binding to immobilized SRC1 coactivator peptide", "method": "The peptides carried an N-terminal biotin for surface immobilization on a Xantec NID200M Sensor Chip (NTA-derivatized carboxymethyldextran hydrogel, XanTec bioanalytics GmbH) preloaded with Ni^2+. […] LXRα and LXRβ LBD proteins were serially diluted in SPR running buffer (10 mM HEPES, 150 mM NaCl, and 0.05% Tween 20, pH 7.4) to a broad range of concentrations (0.02–10 µM) and equilibrated with tested compound (50 μM) prior to the sample injection over a modified biosensor surface. LXR-ligand complexes were injected in quick succession for 120 s over immobilized cofactor peptides and reference surfaces along with blank samples followed by 900 s of dissociation. The binding level at equilibrium was monitored for all samples, including the reference sample that contained DMSO at equal amount as tested compounds. All data were normalized to this reference sample in order to quantify the effects on peptide binding without bias by receptor instability. The surface was regenerated with 0.5% (w/v) SDS after each injection. Binding responses in the steady-state region of the sensorgrams were plotted against LXR LBD concentration to determine the overall equilibrium-binding affinity by fitting the data to nonlinear regression (Prism 8; GraphPad)."}, "LXRα LBD [2]": {"molecular_target": "T3, LXRα LBD (Homo sapiens, UniProt Q13133)", "T3 sequence (Q13133 200-447)": "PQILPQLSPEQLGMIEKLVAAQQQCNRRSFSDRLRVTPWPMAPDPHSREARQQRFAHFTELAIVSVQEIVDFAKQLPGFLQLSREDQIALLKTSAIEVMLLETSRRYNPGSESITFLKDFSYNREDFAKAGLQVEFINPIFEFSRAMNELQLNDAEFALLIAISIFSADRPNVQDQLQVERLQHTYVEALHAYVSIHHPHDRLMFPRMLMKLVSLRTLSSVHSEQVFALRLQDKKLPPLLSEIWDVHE", "experiment": "differential HDX-MS of LXRα LBD (apo vs ligand-bound)", "design": "Human his-tagged LXRα LBD (200-447); His tag; made in house; host or cells: Escherichia coli BL21(DE3)", "conditions": "HDX-MS", "method": "(§1) Prior to the deuterium incorporation experiments, 10 µM apo LXR was incubated with 10× excess of ligand or equal volume of DMSO for 30 min at room temperature. In the experiments with cofactors, 15× excess of the SRC1 coactivator peptide and the NCOR1 corepressor peptide were added to the ligand-bound or apo proteins, respectively, and incubated for 30 min at room temperature. […] A fully deuterated sample was generated by incubating protein with 4 M guanidine-HCl in D2O for 30 min at 45 °C. Exchange reactions were performed with a CTC PAL sample handling robot (LEAP Technologies). Labeling times were 30, 60, 180, 600, and 1800 s in the kinetics experiments. Differential HDX of a complete compound selection was measured after 30 and 600 s of labeling time points. Reactions were conducted by incubating 4 µl of LXR with 50 µl of D2O buffer (containing 25 mM Tris-HCl (pD 7.6), 50 mM NaCl, 10% glycerol, and 1 mM TCEP). The exchange reaction was stopped by the addition of 50 µl of quench solution (3 M urea, 0.1% TFA) followed by immediate injection into a Enzymate BEH Pepsin 2.1 × 30 mm Column (Waters, UK) for protein digestion (2 min at 24 °C). Peptic digest was further injected on a Waters nanoACQUITY UPLC System where peptides were first desalted by trapping for 3 min on a VanGuard Pre-Column Acquity UPLC BEH C18 (1.7 μm; 2.1 × 5 mm), and then eluted over a 6-min 5–40% (vol/vol) acetonitrile (containing 0.1% formic acid) gradient into a Waters Synapt G2-Si mass spectrometer. Peptide separation was conducted at 0.1 °C. All exchange reactions were performed in triplicates.\n(§2) Peptides from three samples of non-deuterated LXR were identified by using the ProteinLynx Global Server (PLGS Waters, UK). Peptides with an intensity of over 5000, a mass error < 5 ppm, and present in at least two of the three data acquisitions were pooled and imported into the DynamX data analysis software (Waters, UK). After a first round of automated spectral processing by using DynamX, each peptide was inspected manually for suitability for further analysis.\n(§3) For pairwise comparison, MEMHDX software was used to identify statistically significant changes of deuterium uptake. For all peptides, a value of relative exchange per amino acid was corrected to back exchange. The mean deuteration level per amino acid was calculated by using Matlab (Mathworks)[69] and subsequently mapped onto the crystal structures with PyMOL (Schrodinger LLC). For structural representation, loop modeling with MOE (Chemical Computing Group Inc.) was applied on 2ACL.pdb file for LXRα LBD, and 1PQC.pdb for LXRβ LBD."}, "LXRβ LBD [3]": {"molecular_target": "T1, LXRβ LBD", "experiment": "differential HDX-MS of LXRβ LBD (apo vs ligand-bound)", "design": "human his-tagged LXRβ LBD (216-461); His tag; made in house; host or cells: Escherichia coli BL21(DE3)", "conditions": "after 30 s of deuterium exchange", "method": "as §1, §2, §3"}, "LXRα": {"molecular_target": "T4, LXRα (Homo sapiens, UniProt Q13133)", "T4 construct": "expression vectors pSG5-Gal4-LXRα LBD or pSG5-Gal4-LXRβ LBD; expressed in transfected cells; host or cells: U2OS osteosarcoma cells", "T4 sequence (Q13133 209-447 limits assumed)": "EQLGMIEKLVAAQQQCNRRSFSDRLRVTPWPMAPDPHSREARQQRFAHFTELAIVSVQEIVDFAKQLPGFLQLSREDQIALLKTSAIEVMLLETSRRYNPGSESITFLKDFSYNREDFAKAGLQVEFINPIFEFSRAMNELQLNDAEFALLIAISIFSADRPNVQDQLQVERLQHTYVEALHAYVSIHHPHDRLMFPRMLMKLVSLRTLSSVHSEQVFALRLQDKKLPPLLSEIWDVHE", "experiment": "Gal4 one hybrid reporter gene (transactivation) assay in U2OS cells, LXRα", "assay_type": "cell-based", "method": "(§4) Transactivation assays were performed in U2OS osteosarcoma cells (ATCC, USA). […] Ligands were added at ten different concentrations 2 h post transfection and the luciferase activity was measured after 40 h."}, "LXRα LBD [4]": {"molecular_target": "T3, LXRα LBD", "experiment": "biochemical", "conditions": "Receptor-binding affinity pKi LXRα, value (SD, n independent experiments)", "from_the_text": "as §5"}, "LXRβ": {"molecular_target": "T5, LXRβ (Homo sapiens, UniProt P55055)", "T5 construct": "expression vectors pSG5-Gal4-LXRα LBD or pSG5-Gal4-LXRβ LBD; expressed in transfected cells; host or cells: U2OS osteosarcoma cells", "T5 sequence (P55055 222-460 limits assumed)": "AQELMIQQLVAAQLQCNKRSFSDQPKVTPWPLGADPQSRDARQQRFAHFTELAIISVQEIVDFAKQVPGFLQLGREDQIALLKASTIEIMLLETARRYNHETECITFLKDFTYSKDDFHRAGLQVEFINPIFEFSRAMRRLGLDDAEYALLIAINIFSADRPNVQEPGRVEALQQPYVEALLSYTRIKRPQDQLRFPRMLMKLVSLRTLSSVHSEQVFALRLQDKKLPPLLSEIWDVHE", "experiment": "Gal4 one hybrid reporter gene (transactivation) assay in U2OS cells, LXRβ", "assay_type": "cell-based", "method": "as §4"}}}
{"smiles": "C[C@H](CC[C@@H]1OC1(C)C)[C@H]1CC[C@H]2[C@@H]3CC=C4C[C@@H](O)CC[C@]4(C)[C@H]3CC[C@]12C", "note": "[24,25EC, 24(S),25-epoxycholesterol, reference compound]", "values": [{"measurement": "Ki", "setting": "LXRβ LBD [1]", "result": 132, "unit": "nM"}, {"measurement": "Kd", "setting": "LXRβ/SRC1", "result": 2500, "unit": "nM"}, {"measurement": "stabilization of LXRα H12", "setting": "LXRα LBD [2]", "result": "did not stabilize LXRα H12"}, {"measurement": "protection of LXRβ H11–H12 from deuterium exchange", "setting": "LXRβ LBD [3]", "result": 10, "unit": "%"}, {"measurement": "agonist activity in the Gal4 reporter gene assay, LXRα", "setting": "LXRα", "result": "No signal was observed"}, {"measurement": "EC50", "setting": "LXRα; U2OS cells, Gal4-LXRα LBD, value (SD, n), read-out: LXRα transactivation pEC50 (converted)", "result": "> 50100", "unit": "nM"}, {"measurement": "Ki", "setting": "LXRα LBD [4]", "result": 275, "unit": "nM"}, {"measurement": "agonist activity in the Gal4 reporter gene assay, LXRβ", "setting": "LXRβ", "result": "No signal was observed"}, {"measurement": "EC50", "setting": "LXRβ; LXRβ transactivation pEC50, U2OS cells, Gal4-LXRβ LBD, value (SD, n)", "result": "> 50100", "unit": "nM"}]}
